Test results taken from paper PMC4182301, “Design, synthesis and SAR exploration of tri-substituted 1,2,4-triazoles as inhibitors of the annexin A2–S100A10 protein interaction” (Bioorganic & Medicinal Chemistry, 2014).
Entries after “also recorded” stand apart in the source; their conditions may differ. Where two headings read alike, the source gives them in different places.

Tests used:
[1] = target: T1, native complex between annexin A2 and S100A10 (Homo sapiens, UniProt P60903); assay: Co-immunoprecipitation of AnxA2 with S100A10 (native complex) from cell lysates, Western blot; type: binding; conditions: MDA-MB-231 cell lysates preincubated with compound or peptide; compared with vehicle
T1 construct: the native complex of the two full-length proteins, AnxA2 and S100A10; endogenous in cells; host or cells: MDA-MB-231 human breast cancer cells (lysate)
T1 sequence (P60903 whole entry, one chain of several): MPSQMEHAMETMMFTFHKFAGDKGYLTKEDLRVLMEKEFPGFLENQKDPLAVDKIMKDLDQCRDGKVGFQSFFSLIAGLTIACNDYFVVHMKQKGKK
Description: In the presence of the isolated synthetic peptide AnxA2(1–14), the amount of AnxA2 in the S100A10 immunoprecipitate is reduced, due to it competing with the binding between native AnxA2 and S100A10.
Figure 5 Co-immunoprecipitation of AnxA2 with S100A10. S100A10 was immunoprecipitated from cell lysates and co-immunoprecipitation of AnxA2 was assessed by Western blotting. The amount of AnxA2 in the S100A10 immunoprecipitate was quantified using Scion Image Software and expressed as a percentage of the vehicle-treated sample (n = 4 ± SE).
Human MDA-MB-231 breast cancer cells were extracted in 50 mM Tris–HCl (pH 8.0) buffer containing 150 mM sodium chloride and 1% (v/v) NP-40. Lysates were centrifuged at 17,000×g and incubated at 4 °C for 16 h with 10 μL S100A10 antibody (BD transduction Laboratories) and 50 μL protein A/G agarose (Alpha Diagnostic International Inc). […] The supernatant was then analyzed by SDS–PAGE after which the gel was transferred to a nitrocellulose filter. […]

[2] = target: interaction between the AnxA2 N-terminus and S100A10 (Homo sapiens, UniProt P60903); assay: Fluorescence screening assay (FRET competitive binding, Cy3-AnxA2(Ac1–14) peptide / Cy5-S100A10); conditions: for pIC50 ± SE / IC50: FRET assay, 12 observations; for IC50: read-out: IC50; for fold increase in potency compared to initial hit compound 1a: relative to 1a; for inhibitory activity (in words): truncation of 35 to 5-methyl derivative, and its side chain extension; for fold loss of activity on truncation of the 4,6-dimethylpyrimidin-2-ylsulfanyl side chain to methyl: relative to parent compound (64 vs 36, 65 vs 46, 66 vs 47)
Chain of interaction between the AnxA2 N-terminus and S100A10 (P60903 whole entry, species assumed, the tested form may be a part): as the sequence (P60903 whole entry, one chain of several) above
Description: Assessment of compound activity was performed as described.[35] Briefly, a Cy5-labelled S100A10 tracer was developed and binding of a Cy3-labelled AnxA2(Ac1–14) peptide ligand was assessed using a fluorescence resonance energy transfer readout. Assays were carried out in Nunc black non-treated 384-well plates at 20 °C in 50 μL buffer C. All incubations were performed in quadruplicate. Compounds, peptide and buffer controls were added to the wells in a 10 μL volume in 5% DMSO. Cy5-labelled S100A10 tracer (407 nM) and Cy3-labelled AnxA2(Ac1–14) peptide ligand (1.33 μM) were pre-incubated for 5 min at 20 °C and 40 μL of the preformed complex was then added to the wells and mixed for 10 s to yield a final DMSO concentration of 1%. After 5 min incubation at 20 °C, readings were taken on a Perkin Elmer Envision plate reader by excitation at 488 nm and emission at 695 nm. Fluorescence resonance energy transfer (FRET) was calculated by subtracting the sum of the fluorescence emission of S100A10-Cy5 and AA2(1–14)-Cy3 individually from that measured for the co-incubated partners. Compound binding was calculated as percentage of non-treated control and data were analysed by non-linear regression (dose response—variable slope with bottom and top parameters fixed at 0% and 100%, respectively) using Graphpad Prism Software to determine the IC50 of binding (primary assay).

pIC50 ± SE ([2]; Table 2)	IC50 ([2]; Table 2)	pIC50 ± SE ([2]; Table 3)	IC50 ([2]; Table 3)	Structure (SMILES)	further results
				Cc1cc(C)nc(SCc2nnc(SCC(=O)Nc3ccc(C(C)C)cc3)n2Cc2ccco2)n1 [Compound 36, 2-[5-(4,6-Dimethyl-pyrimidin-2-ylsulfanylmethyl)-4-furan-2-ylmethyl-4H-[1,2,4]triazol-3-ylsulfanyl]-N-(4-isopropyl-phenyl)-acetamide]	amount of AnxA2 in the S100A10 immunoprecipitate [1]: disrupt the native complex; also recorded: reduced; pIC50 ± SE ([2]; Table 1): 5.35 ± 0.04; IC50 ([2]; Table 1): 4 µM; fold increase in potency compared to initial hit compound 1a [2]: ~10 fold
5.02 ± 0.04	10 µM			COCCCn1c(CSc2nc(C)cc(C)n2)nnc1SCC(=O)Nc1ccc(C(F)(F)F)cc1 [Compound 51, 2-[5-(4,6-Dimethyl-pyrimidin-2-ylsulfanylmethyl)-4-(3-methoxy-propyl)-4H-[1,2,4]triazol-3-ylsulfanyl]-N-(4-trifluoromethyl-phenyl)-acetamide]	
5.35 ± 0.04	4 µM			COc1ccc(-n2c(CSc3nc(C)cc(C)n3)nnc2SCC(=O)Nc2ccc(C(F)(F)F)cc2)cc1 [Compound 52, 2-[5-(4,6-Dimethyl-pyrimidin-2-ylsulfanylmethyl)-4-(4-methoxy-phenyl)-4H-[1,2,4]triazol-3-ylsulfanyl]-N-(4-trifluoromethyl-phenyl)-acetamide]	fold increase in potency compared to initial hit compound 1a [2]: 10 fold
5.07 ± 0.03	8 µM			Cc1cc(C)nc(SCc2nnc(SCC(=O)Nc3ccc(C(F)(F)F)cc3)n2-c2ccc(Cl)cc2)n1 [Compound 53, 2-[4-(4-Chloro-phenyl)-5-(4,6-dimethyl-pyrimidin-2-ylsulfanylmethyl)-4H-[1,2,4]triazol-3-ylsulfanyl]-N-(4-trifluoromethyl-phenyl)-acetamide]	
5.14 ± 0.04	7 µM			COc1ccc(-n2c(CSc3nc(C)cc(C)n3)nnc2SCC(=O)Nc2cc(C(F)(F)F)cc(C(F)(F)F)c2)cc1 [Compound 54, N-(3,5-Bis-trifluoromethyl-phenyl)-2-[5-(4,6-dimethyl-pyrimidin-2-ylsulfanylmethyl)-4-(4-methoxy-phenyl)-4H-[1,2,4]triazol-3-ylsulfanyl]-acetamide]	
4.65 ± 0.05	22 µM			COc1ccc(-n2c(CSc3nc(C)cc(C)n3)nnc2SCC(=O)Nc2ccc(Cl)cc2)cc1 [Compound 55, N-(4-Chloro-phenyl)-2-[5-(4,6-dimethyl-pyrimidin-2-ylsulfanylmethyl)-4-(4-methoxy-phenyl)-4H-[1,2,4]triazol-3-ylsulfanyl]-acetamide]	
3.81 ± 0.03	154 µM			COc1ccc(NC(=O)CSc2nnc(CSc3nc(C)cc(C)n3)n2-c2ccc(OC)cc2)cc1 [Compound 56, 2-[5-(4,6-Dimethyl-pyrimidin-2-ylsulfanylmethyl)-4-(4-methoxy-phenyl)-4H-[1,2,4]triazol-3-ylsulfanyl]-N-(4-methoxy-phenyl)-acetamide]	
		2.32 ± 0.48	> 1000 µM	Cc1ccc(NC(=O)CSc2nnc(C)n2Cc2ccco2)cc1C [Compound 62, N-(3,4-Dimethyl-phenyl)-2-(4-furan-2-ylmethyl-5-methyl-4H-[1,2,4]triazol-3-ylsulfanyl)-acetamide]	inhibitory activity (in words) [2]: complete loss of activity
		2.95 ± 0.26	> 1000 µM	Cc1ccc(NC(=O)CCSc2nnc(C)n2Cc2ccco2)cc1C [Compound 63, N-(3,4-Dimethyl-phenyl)-3-(4-furan-2-ylmethyl-5-methyl-4H-[1,2,4]triazol-3-ylsulfanyl)-propionamide]	inhibitory activity (in words) [2]: abolished activity
		4.40 ± 0.03	40 µM	Cc1nnc(SCC(=O)Nc2ccc(C(C)C)cc2)n1Cc1ccco1 [Compound 64, 2-(4-Furan-2-ylmethyl-5-methyl-4H-[1,2,4]triazol-3-ylsulfanyl)-N-(4-isopropyl-phenyl)-acetamide]	fold loss of activity on truncation of the 4,6-dimethylpyrimidin-2-ylsulfanyl side chain to methyl [2]: 10 fold
		3.86 ± 0.11	138 µM	C=CCn1c(C)nnc1SCC(=O)Nc1ccc(C(C)C)cc1 [Compound 65, 2-(4-Allyl-5-methyl-4H-[1,2,4]triazol-3-ylsulfanyl)-N-(4-isopropyl-phenyl)-acetamide]	fold loss of activity on truncation of the 4,6-dimethylpyrimidin-2-ylsulfanyl side chain to methyl [2]: 14 fold
		3.79 ± 0.14	164 µM	COCCCn1c(C)nnc1SCC(=O)Nc1ccc(C(C)C)cc1 [Compound 66, N-(4-Isopropyl-phenyl)-2-[4-(3-methoxy-propyl)-5-methyl-4H-[1,2,4]triazol-3-ylsulfanyl]-acetamide]	fold loss of activity on truncation of the 4,6-dimethylpyrimidin-2-ylsulfanyl side chain to methyl [2]: 23 fold
